ChEMBL document CHEMBL1127951, “Synthesis and RNA cleaving activities of polyamine derived novel artificial ribonuclease” (Bioorg Med Chem Lett, 1994)

System: Nucleic Acid
Assay: Binding affinity towards calf thymus DNA was determined
Format: nucleic-acid assay
Details: Bos taurus

Row | K [M⁻¹] | SMILES
1 | 22000 | NCCN(CCNC(=O)Cc1c[nH]cn1)CCNC(=O)c1c2ccccc2nc2ccccc12
2 | 150000 | NCCN(CCN)CCNC(=O)c1c2ccccc2nc2ccccc12
3 | 16000 | NCCC(=O)NCCN(CCNC(=O)Cc1c[nH]cn1)CCNC(=O)c1c2ccccc2nc2ccccc12
